Experimental findings from US11760984B2, “CRISPR protein inhibitors” (THE BROAD INSTITUTE, INC., priority 2017, dated 2023) are described below.

The experiment concerns the target T1, SpCas9:gRNA complex (Streptococcus pyogenes serotype M1, UniProt Q99ZW2).
T1 construct: His6 (N, cleaved yes); made in house; host or cells: E. coli BL21 Star (DE3)
In words: 19F NMR binding assay. Conditions: for Fractional Occupancy (1-Ibound/I0) / LW (linewidth of 19F signal): [Ligand] 50 μM. Here is the method:
(§1) NMR binding assay. All samples were prepared with 50 μM BRD7087 in 20 mM Tris buffer (pH=7.4) with varying concentrations of SpCas9:gRNA in a 3 mm NMR tube. Experiments were performed on a 600 MHz (19F: 564.71 MHz) Bruker Avance III NMR spectrometer equipped with a 5 mm QCI-F CryoProbe and a SampleJet for automated sample handling. To acquire spectra, a standard one-pulse 19F experiment with WALTZ-16 for proton decoupling during acquisition, a 5 second recycle delay, and 256 scans was used. All spectra were recorded at 280 K. NMR data were apodized with a 1 Hz exponential function prior to Fourier transformation. All spectra were baseline corrected; peak widths and intensities were extracted using the automated line-fitting feature provided with the MNova software package. Determination of the value of Kd was accomplished using least squares fitting to the expression given in Equation 8 in the paper by Shortridge et al.2.
Kd values obtained by NMR rely on the assumption that ligand binding is in fast-exchange, which typically holds true for ligands with Kd in the 0.5 μM to 20 mM range.
as §1, with “(^19F:” for “(19F:”, “^19F” for “19F”, “al.^2.” for “al.2.”

T1 sequence (Q99ZW2 whole entry, one chain of several): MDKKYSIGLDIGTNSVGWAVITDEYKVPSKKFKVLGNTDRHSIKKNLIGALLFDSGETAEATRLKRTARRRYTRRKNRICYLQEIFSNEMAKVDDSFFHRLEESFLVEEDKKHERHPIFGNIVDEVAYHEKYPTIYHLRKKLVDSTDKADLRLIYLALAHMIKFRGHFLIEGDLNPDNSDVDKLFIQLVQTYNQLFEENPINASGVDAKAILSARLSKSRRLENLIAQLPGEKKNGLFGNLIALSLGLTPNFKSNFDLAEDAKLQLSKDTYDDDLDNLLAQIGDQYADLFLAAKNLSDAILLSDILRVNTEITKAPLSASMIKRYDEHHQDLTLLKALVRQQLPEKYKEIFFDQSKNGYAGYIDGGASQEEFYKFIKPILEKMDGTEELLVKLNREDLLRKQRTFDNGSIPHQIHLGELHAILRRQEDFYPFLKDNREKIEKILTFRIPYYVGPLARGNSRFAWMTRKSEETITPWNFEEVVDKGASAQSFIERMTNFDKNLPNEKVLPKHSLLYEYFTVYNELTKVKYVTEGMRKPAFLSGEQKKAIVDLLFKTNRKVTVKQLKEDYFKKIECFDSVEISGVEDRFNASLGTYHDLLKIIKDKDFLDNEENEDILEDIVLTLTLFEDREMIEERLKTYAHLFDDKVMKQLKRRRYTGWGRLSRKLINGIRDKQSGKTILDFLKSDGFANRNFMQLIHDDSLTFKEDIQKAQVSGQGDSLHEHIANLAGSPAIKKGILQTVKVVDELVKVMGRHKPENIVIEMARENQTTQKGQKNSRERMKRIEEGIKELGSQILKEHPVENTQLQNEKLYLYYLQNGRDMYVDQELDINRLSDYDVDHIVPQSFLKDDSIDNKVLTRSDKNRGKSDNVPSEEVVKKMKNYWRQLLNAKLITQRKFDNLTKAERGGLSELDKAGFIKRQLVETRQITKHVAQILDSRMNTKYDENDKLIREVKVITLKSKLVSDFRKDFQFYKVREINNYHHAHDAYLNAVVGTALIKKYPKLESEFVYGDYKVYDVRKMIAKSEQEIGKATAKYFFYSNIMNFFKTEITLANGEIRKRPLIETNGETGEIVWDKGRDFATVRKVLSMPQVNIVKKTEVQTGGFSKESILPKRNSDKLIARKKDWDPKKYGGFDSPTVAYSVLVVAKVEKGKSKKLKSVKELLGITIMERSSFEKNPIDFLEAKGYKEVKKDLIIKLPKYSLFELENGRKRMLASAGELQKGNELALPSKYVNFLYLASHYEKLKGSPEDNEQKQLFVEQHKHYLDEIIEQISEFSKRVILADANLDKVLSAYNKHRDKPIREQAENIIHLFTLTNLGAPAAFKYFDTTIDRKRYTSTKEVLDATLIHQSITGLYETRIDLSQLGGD

A word on the Kd: it is the constant that tells how readily two partners part at equilibrium. In the case of `OC[C@H]1Nc2ccc(-c3cccc(F)c3)cc2[C@H]2[C@@H]1CCN2Cc1ccncc1` [BRD7087, ((3aR,4S,9bR)-8-(3-Fluorophenyl)-1-(pyridin-4-ylmethyl)-2,3,3a,4,5,9b-hexahydro-1H-pyrrolo[3,2-c]quinolin-4-yl)methanol], the Kd (50 μM ligand, 20 mM Tris pH 7.4, 280 K, read-out: binding constant Kd (method of Shortridge et al., peak intensities)) is roughly 2200 nM. Besides, the “binding by differential line broadening of 19F signal” value (50 μM ligand, broadening from 0.75 μM SpCas9:gRNA) is “relatively tight binding”. The “Fractional Occupancy (1-Ibound/I0)” value is, setting by setting: ([Protein:gRNA] 0.75 μM) 0.1307; ([Protein:gRNA] 1.0 μM) 0.1817; ([Protein:gRNA] 1.25 μM) 0.3042; ([Protein:gRNA] 1.5 μM) 0.3436; ([Protein:gRNA] 1.75 μM) 0.4015. For the same compound, the “LW (linewidth of 19F signal)” value is recorded as 4.3 Hz ([Protein:gRNA] 0.75 μM); 4.6 Hz ([Protein:gRNA] 1.0 μM); 5.3 Hz ([Protein:gRNA] 1.25 μM); 5.9 Hz ([Protein:gRNA] 1.5 μM); 6.3 Hz ([Protein:gRNA] 1.75 μM).
